Converted amounts (≈) assume the structure as drawn. Read-outs that look alike come from different tables or passages of the source.
Experiments:
[1] = system: Influenza virus A/WSN/33 (H1N1); experiment: microbe, parasite or virus in culture; format: cell-based; conditions: 72 h
in vitro = conditions: bovine; for CC50 at 72 h: mdbk cells
[2] = viral strain: Influenza virus A/WSN/33 (H1N1), Cell: MDBK, […], 3 days, read-out: IC50

SMILES	IC50 [1, 2]	CC50 (in vitro)	CC50 at 72 h (in vitro)	IC50 ([1]; H1N1|WSN, MDBK)
CCCCN1Cc2c(cc(O)c3c2O[C@@]24CC[C@H](O)C(C)(C)[C@@H]2CC[C@H](C)[C@@]4(C)C3)C1=O [Compound (28b), (6aR, 7S, 9aS, 11S, 13aS)-2-butyl-2,3,6,6a, 7,8,9,9a, 10, 11, 12, 13-dodecahydro-5, 11-dihydroxy-6a, 7, 10, 10-tetramethyl-3-oxo-1H-benzo[8,8a][1]benzopyrano[2,3-e]isoindole]	0.02 µg/mL (≈ 0.0453 µM)	2.5 µg/mL (≈ 5.66 µM)	–	–
C[C@H]1CC[C@H]2C(C)(C)[C@@H](O)CC[C@]23Oc2c(c(O)cc4c2CNC4=O)C[C@]13C [(2)]	0.001 µg/mL (≈ 0.00259 µM)	–	25 µg/mL (≈ 64.9 µM)	–
CON=C1CC[C@@]23Oc4c(c(O)cc5c4CNC5=O)C[C@]2(C)[C@@H](C)CC[C@H]3C1(C)C [Compound (51b), (6a R, 7 S, 9a S, 13a S)-2,3,6,6a, 7,8,9,9a, 10, 11, 12, 13-dodecahydro-5-hydroxy-11-methoxyimino-6a, 7, 10, 10-tetramethyl-3-oxo-1H-benzo[8,8a][1]benzopyrano[2,3-e]isoindole]	0.003 µg/mL (≈ 0.00727 µM)	5 to 10 µg/mL (≈ 12.1 to 24.2 µM)	–	–
C[C@H]1CC[C@H]2C(C)(C)C(=NNC(N)=O)CC[C@]23Oc2c(c(O)cc4c2CNC4=O)C[C@]13C [Compound (51d), (6a R, 7 S, 9a S, 13a S)-2,3,6,6a, 7,8,9,9a, 10, 11, 12, 13-dodecahydro-5-hydroxy-6a, 7, 10, 10-tetramethyl-3-oxo-11-ureidoimino-1H-benzo[8,8a][1]benzopyrano[2,3-e]isoindole]	0.005 µg/mL (≈ 0.0113 µM)	> 10 µg/mL	–	–
C[C@H]1CC[C@H]2C(C)(C)C(=NN3CCOCC3)CC[C@]23Oc2c(c(O)cc4c2CNC4=O)C[C@]13C [Compound (51f), (6aR, 7S, 9aS, 13aS)-2,3,6,6a, 7,8,9,9a, 10, 11, 12, 13-dodecahydro-5-hydroxy-6a, 7, 10, 10-tetramethyl-11-(1-oxa-4-azacyclohex-4-yl)imino-3-oxo-1H-benzo[8,8a][1]benzopyrano[2,3-e]isoindole]	0.05 µg/mL (≈ 0.107 µM)	25 µg/mL (≈ 53.5 µM)	–	–
CC(=O)N[C@H]1CC[C@@]23Oc4c(c(O)cc5c4CNC5=O)C[C@]2(C)[C@@H](C)CC[C@H]3C1(C)C [Compound (47b), (6aR, 7S, 9aS, 11S, 13aS)-11-acetylamino-2,3,6,6a, 7,8,9,9a, 10, 11, 12, 13-dodecahydro-5-hydroxy-6a, 7, 10, 10-tetramethyl-3-oxo-1H-benzo[8,8a][1]benzopyrano[2,3-e]isoindole]	0.02 µg/mL (≈ 0.0469 µM)	> 10 µg/mL	–	–
C[C@H]1CC[C@H]2C(C)(C)[C@@H](O)CC[C@]23Oc2c(c(O)cc4c2C(=O)NC4=O)C[C@]13C [(32a), (6aR, 7S, 9aS, 115, 13aS)-2,3,6,6a, 7,8,9,9a, 10, 11, 12, 13-dodecahydro-5, 11-dihydroxy-6a, 7, 30, 10-tetramethyl-13-dioxo-1H-benzo[8,8a][1]benzopyrano[2,3-e]isoindole]	0.001 to 0.002 µg/mL (≈ 0.0025 to 0.00501 µM)	–	20 µg/mL (≈ 50.1 µM)	–
CC(=O)O[C@@H]1C(=NO)C[C@@]23Oc4c(c(O)cc5c4CNC5=O)C[C@]2(C)[C@@H](C)CC[C@H]3C1(C)C [Compound (53b), (6aR, 7S, 9aS, 11S, 13aS)-11-acetoxy-2,3,6,6a, 7,8,9,9a, 10, 11, 12, 13-dodecahydro-5-hydroxy-12-hydroxyimino-6a, 7, 10, 10-tetramethyl-3-oxo-1H-benzo[8,8a][1]benzopyrano[2,3-e]isoindole]	0.08 µg/mL (≈ 0.175 µM)	> 10 µg/mL	–	–
C[C@H]1CC[C@H]2C(C)(C)[C@H](O)CC[C@]23Oc2c(c(OP(=O)(O)O)cc4c2CNC4=O)C[C@]13C.[Na] [Compound (59b), (6a R, 7 S, 9a S, 11 R, 13a S)-2,3,6,6a, 7,8,9,9a, 10, 11, 12, 13-dodecahydro-11-hydroxy-5-dihydroxyphosphinyloxy-6a, 7, 10,10-tetramethyl-3-oxo-1H-benzo[8,8a][1]benzopyrano[2,3-e]isoindole monosodium salt]	–	> 10 µg/mL	–	0.001 µg/mL
